Measured values from US12053459B2, “CDK2 inhibitors and methods of using the same” (Cedilla Therapeutics, Inc., priority 2021, dated 2024).

Experiments:
[1] = biological target: CDK2/Cyclin E1(14-475) (Homo sapiens, UniProt P24941); experiment: Caliper LabChip EZ Reader mobility shift assay, inhibition of CDK2/Cyclin E1 activity; assay type: biochemical; settings: class symbols A-D
How it was run: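 CDK2/Cyclin E1(14-475) pre-incubated 30 min with compound and ATP, then reaction started with 5-FAM-QSPKKG-CONH2; final 2.5 nM enzyme, 100 μM ATP, 1.5 μM peptide, HEPES pH 7.5. Stopped with EDTA after 100 min; substrate/product conversion by capillary electrophoresis mobility shift, IC50 from four-parameter fit.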

[2] = test system: Kuramochi cells; experiment: BrdU cell proliferation assay (colorimetric ELISA), Kuramochi cells; assay type: cell-based; settings: class symbols A-D
How it was run: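 Kuramochi cells (2,000/well, with Kuramochi RB^KO cells as a specificity control) were treated with a 4-point, 3-fold dilution series made from 10 mM compound stocks and left for 4 days at 37 °C. Proliferation was measured by 1 h BrdU labelling, then anti-BrdU peroxidase ELISA read at 450 nm. Signals were background-subtracted and normalized to DMSO wells.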

Row | Structure (SMILES) | IC50 [1] [µM] | IC50 [2] [µM]
1 | C[C@@H](OCc1ccc(F)cc1)[C@H](NC(=O)C1CN(C(=O)Cc2c[nH]c3cc(Cl)ccc23)CC2CN(C(=O)c3ccc(OC4CC4)cc3)CC21)C(N)=O (stereo partly shown) [I-244] | > 10 | > 10
2 | CNC(=O)[C@H](CCCc1ccccc1)NC(=O)C1CN(C(=O)Cc2c[nH]c3cc(Cl)ccc23)CC2CN(C(=O)c3ccc4c(c3)n(C)c(=O)n4C(C)C)CC21 (single isomer, unassigned) [I-86] | > 10 | > 10
3 | CNC(=O)[C@H](CCCc1ccccc1)NC(=O)C1CN(C(=O)Cc2c[nH]c3c(C)cccc23)CC2CN(C(=O)c3ccc(OC(C)C)c(OC)c3)CC21 (stereo partly shown) [I-175] | > 10 | > 10
4 | COc1cc(C(=O)N2CC3CN(C(=O)Cc4c[nH]c5cc(Cl)ccc45)CC(C(=O)Nc4cncc(Oc5ccccc5)c4)C3C2)ccc1OC(C)C (stereo not shown) [I-240] | 0.5 to 5 | > 10
5 | CNC(=O)[C@H](CCCc1ccccc1)NC(=O)C1CN(C(=O)c2coc(C)n2)CC2CN(C(=O)c3ccc(OC(C)C)c(OC)c3)CC21 (stereo partly shown) [I-166] | > 10 | > 10
6 | CNC(=O)[C@H](CCCc1ccccc1)NC(=O)C1CN(C(=O)CCc2ccccn2)CC2CN(C(=O)c3ccc(OC(C)C)c(OC)c3)CC21 (stereo partly shown) [I-164] | > 10 | > 10
7 | CNC(=O)[C@H](CCCc1ccccc1)NC(=O)C1CN(C(=O)Cc2c[nH]c3cc(Cl)ccc23)CC2CN(C(=O)c3ccc(NC(=O)C4CC4)c(OC)c3)CC21 (stereo partly shown) [I-54] | > 10 | > 10
8 | CNC(=O)[C@H](CCCc1ccccc1)NC(=O)C1CN(C(=O)Cc2c[nH]c3cc(Cl)ccc23)CC2CN(C(=O)c3ccc4c(c3)CC(=O)N4)CC21 (single isomer, unassigned) [I-22] | > 10 | > 10
9 | CNC(=O)[C@H](CCCc1ccccc1)NC(=O)C1CN(C(=O)Cc2c[nH]c3cc(Cl)ccc23)CC2CN(C(=O)c3ccc(OC)cc3)CC21 (stereo partly shown) [I-5] | > 10 | > 10
10 | CNC(=O)[C@H](CCCc1ccccc1)NC(=O)C1CN(C(=O)c2cccc(CO)n2)CC2CN(C(=O)c3ccc(OC(C)C)c(OC)c3)CC21 (stereo partly shown) [I-209] | > 10 | > 10
11 | CNC(=O)[C@H](CCCc1ccccc1)NC(=O)C1CN(C(=O)Cc2c[nH]c3c(OC)cccc23)CC2CN(C(=O)c3ccc(OC(C)C)c(OC)c3)CC21 (stereo partly shown) [I-229] | > 10 | > 10
12 | COc1cc(C(=O)N2CC3CN(C(=O)Cc4c[nH]c5cc(Cl)ccc45)CC(C(=O)NCC(=O)N(C)CCCc4ccccc4)C3C2)ccc1OC(C)C (single isomer, unassigned) [I-100] | ≤ 0.5 | 0.5 to 5
13 | CNC(=O)[C@H](CC#Cc1ccccc1)NC(=O)C1CN(C(=O)Cc2c[nH]c3cc(Cl)ccc23)CC2CN(C(=O)c3ccc(OC(C)C)c(OC)c3)CC21 (stereo partly shown) [I-137] | > 10 | > 10
14 | CNC(=O)[C@H](CCCc1ccccc1)NC(=O)C1CN(C(=O)Cc2c[nH]c3cc(Cl)ccc23)CC2CN(C(=O)c3cncc(C)n3)CC21 (stereo partly shown) [I-60] | > 10 | > 10
15 | CNC(=O)[C@H](CCCc1cccc(O)c1)NC(=O)C1CN(C(=O)Cc2c[nH]c3cc(Cl)ccc23)CC2CN(C(=O)c3ccc(OC(C)C)c(OC)c3)CC21 (single isomer, unassigned) [I-152] | > 10 | > 10
16 | CNC(=O)[C@H](CCCc1cccc(O)c1)NC(=O)C1CN(C(=O)Cc2c[nH]c3cc(Cl)ccc23)CC2CN(C(=O)c3ccc(OC(C)C)c(OC)c3)CC21 (stereo partly shown) [I-128] | 5 to 10 | 0.5 to 5
17 | CNC(=O)[C@H](CCCc1ccccc1)NC(=O)C1CN(C(=O)c2cnc3ccccc3c2)CC2CN(C(=O)c3ccc(OC(C)C)c(OC)c3)CC21 (stereo partly shown) [I-181] | > 10 | > 10
18 | CNC(=O)[C@@H](NC(=O)C1CN(C(=O)Cc2c[nH]c3cc(Cl)ccc23)CC2CN(C(=O)c3cc(-c4ccccc4)n[nH]3)CC21)[C@H](C)OCc1ccccc1 (stereo partly shown) [I-250] | 0.5 to 5 | > 10
19 | CNC(=O)[C@@H](CCCC1CCCCCC1)NC(=O)C1CN(C(=O)Cc2c[nH]c3cc(Cl)ccc23)CC2CN(C(=O)c3ccc(OC(C)C)c(OC)c3)CC21 (stereo partly shown) [I-141] | > 10 | 5 to 10
20 | CNC(=O)[C@H](CCCc1ccccc1)NC(=O)C1CN(C(=O)c2cncs2)CC2CN(C(=O)c3ccc(OC(C)C)c(OC)c3)CC21 (stereo partly shown) [I-206] | > 10 | > 10
21 | COc1cc(C(=O)N2CC3CN(C(=O)Cc4c[nH]c5cc(Cl)ccc45)CC(C(=O)NC4CCCN(C(=O)Cc5ccccc5)C4)C3C2)ccc1OC(C)C (stereo not shown) [I-90] | > 10 | > 10
22 | CNC(=O)[C@H](CCCc1ccccc1)NC(=O)C1CN(C(=O)Cc2c[nH]c3cc(Cl)ccc23)CC2CN(C(=O)c3cn4ccncc4n3)CC21 (stereo partly shown) [I-40] | > 10 | > 10
23 | COc1cc(C(=O)N2CC3CN(C(=O)Cc4c[nH]c5cc(Cl)ccc45)CC(C(=O)NC(CCCc4ccccc4)c4ccccn4)C3C2)ccc1OC(C)C (stereo not shown) [I-150] | 0.5 to 5 | 5 to 10
